Biological target: T1, beta amyloid (Aβ42) (Homo sapiens, UniProt P05067)
T1 construct: gene APP; synthetic peptide of 42 amino acids β-amyloid Aβ42 (monomers)
Assay: ITC with Aβ[…] monomers (supported by fluorescence saturation binding with monomers and fibrils)

T1 sequence (P05067 672-713 limits assumed): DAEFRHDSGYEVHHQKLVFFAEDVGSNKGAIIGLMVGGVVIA

With `CC1=C(c2nc3ccccc3s2)C(C)=[N+]2C1=C(c1ccc(OCC(=O)NCCCOc3c(I)cc(Cl)c4cccnc34)cc1)c1c(C)cc(C)n1[B-]2(F)F` [BDP-CLQ, 2-(4-(2-(benzo[d]thiazol-2-yl)-5,5-difluoro-1,3,7,9-tetramethyl-5H-5λ^4,6λ^4-dipyrrolo [1,2-c:2′,1′-f][1,3,2]diazaborinin-10-yl)phenoxy)-N-(3-((5-chloro-7-iodoquinolin-8-yl)-oxy)propyl)acetamide] the Kd was 4.08 ± 0.2 µM.

— PMC12732972, “Bifunctional BODIPY-Clioquinol Copper Chelator with Multiple Anti-AD Properties” (International Journal of Molecular Sciences, 2025)
